According to patent US20260285855A1, “HETEROARYL DERIVATIVES AS DDRS INHIBITORS” (CHIESI FARMACEUTICI S.P.A., priority 2023, published 2026):

Columns and labels:
DDR2 = target: T1, DDR2 (Homo sapiens, UniProt Q16832); assay: LanthaScreen Europium Kinase Binding assay, DDR2; details: 5 nM DDR2, 10 nM Kinase Tracer 178, 1 h at rt; Ki from IC50 by Cheng-Prusoff; read-out: Ki DDR2
T1 construct: purchased Life Technologies
T1 sequence (Q16832 22-855): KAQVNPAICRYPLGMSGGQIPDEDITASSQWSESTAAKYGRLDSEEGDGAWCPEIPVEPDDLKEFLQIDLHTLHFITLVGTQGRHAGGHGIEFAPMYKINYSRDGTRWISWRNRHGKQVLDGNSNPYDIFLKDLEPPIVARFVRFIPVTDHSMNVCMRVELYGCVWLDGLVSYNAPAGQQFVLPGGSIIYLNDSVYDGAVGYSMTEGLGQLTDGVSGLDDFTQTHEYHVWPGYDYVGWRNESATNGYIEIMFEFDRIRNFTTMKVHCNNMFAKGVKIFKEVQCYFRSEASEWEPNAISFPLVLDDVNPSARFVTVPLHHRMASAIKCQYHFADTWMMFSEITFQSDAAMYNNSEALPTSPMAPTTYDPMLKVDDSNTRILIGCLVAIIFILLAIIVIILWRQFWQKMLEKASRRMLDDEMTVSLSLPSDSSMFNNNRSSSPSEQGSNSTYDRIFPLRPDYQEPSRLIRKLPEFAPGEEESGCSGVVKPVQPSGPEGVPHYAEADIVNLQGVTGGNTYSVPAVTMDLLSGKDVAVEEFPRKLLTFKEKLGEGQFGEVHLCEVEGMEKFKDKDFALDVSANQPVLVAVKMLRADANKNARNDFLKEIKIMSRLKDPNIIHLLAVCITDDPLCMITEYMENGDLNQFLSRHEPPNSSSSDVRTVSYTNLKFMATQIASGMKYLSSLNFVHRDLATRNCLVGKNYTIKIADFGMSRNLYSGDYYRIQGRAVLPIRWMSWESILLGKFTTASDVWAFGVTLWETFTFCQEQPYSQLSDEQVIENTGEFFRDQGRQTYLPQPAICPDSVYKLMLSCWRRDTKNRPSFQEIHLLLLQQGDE
Experimental: (§1) DDR1 and DDR2 binding assays were performed using Life Technologies LanthaScreen™ Europium Kinase Binding assay. […] IC50 values were determined in GraphPad Prism 7.0 software, using 4 parameter model: log (inhibitor) vs. response. IC50 values were converted in Ki using the Cheng-Prusoff equation (Ki-IC50/(1+ [Tracer]/Kd).

DDR1 = target: T2, DDR1 (Homo sapiens, UniProt Q08345); assay: LanthaScreen Europium Kinase Binding assay, DDR1; details: 5 nM DDR1, 20 nM Kinase Tracer 178, 1 h at rt; Ki from IC50 by Cheng-Prusoff; read-out: Ki DDR1
T2 construct: purchased Carna Biosciences
Experimental: as §1

T2 sequence (Q08345 19-913): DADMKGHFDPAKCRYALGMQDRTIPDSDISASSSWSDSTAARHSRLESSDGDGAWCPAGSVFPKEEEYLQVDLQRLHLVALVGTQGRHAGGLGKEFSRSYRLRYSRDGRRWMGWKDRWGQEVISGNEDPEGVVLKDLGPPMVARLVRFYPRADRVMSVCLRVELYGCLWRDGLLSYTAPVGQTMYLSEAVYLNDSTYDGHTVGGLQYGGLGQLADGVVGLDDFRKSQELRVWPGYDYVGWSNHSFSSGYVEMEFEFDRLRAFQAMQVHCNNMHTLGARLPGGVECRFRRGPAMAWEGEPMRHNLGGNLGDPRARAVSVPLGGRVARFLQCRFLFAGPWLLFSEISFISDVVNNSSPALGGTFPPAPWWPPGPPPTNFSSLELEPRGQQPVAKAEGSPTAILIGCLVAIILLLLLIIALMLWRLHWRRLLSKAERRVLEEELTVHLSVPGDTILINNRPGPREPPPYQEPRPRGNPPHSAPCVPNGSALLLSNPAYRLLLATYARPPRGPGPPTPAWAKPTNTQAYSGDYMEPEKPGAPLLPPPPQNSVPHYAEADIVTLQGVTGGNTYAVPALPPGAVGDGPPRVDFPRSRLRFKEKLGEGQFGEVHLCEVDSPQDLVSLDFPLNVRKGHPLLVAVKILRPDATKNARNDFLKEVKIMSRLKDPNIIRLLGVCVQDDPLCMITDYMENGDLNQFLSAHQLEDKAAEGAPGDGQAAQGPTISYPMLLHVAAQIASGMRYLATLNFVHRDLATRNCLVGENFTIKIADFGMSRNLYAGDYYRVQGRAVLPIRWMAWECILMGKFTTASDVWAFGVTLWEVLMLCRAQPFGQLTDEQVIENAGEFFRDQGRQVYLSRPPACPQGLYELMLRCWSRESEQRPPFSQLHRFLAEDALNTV

Row | SMILES | Ki (DDR2) [nM] | Ki (DDR1) [nM]
1 | O=C(Nc1cccc(C(F)(F)F)c1)NC1CC2(C1)CN(C(=O)c1cnc3n1CCOC3)C2 [Example 6, 1-(2-(5,6-dihydro-8H-imidazo[2,1-c][1,4]oxazine-3-carbonyl)-2-azaspiro[3.3]heptan-6-yl)-3-(3-(trifluoromethyl)phenyl)urea] | 5 to 25 | < 5
2 | Cc1ccc(OC(F)(F)F)cc1NC(=O)CC1CC2(C1)CN(C(=O)c1cnn3ccn(C)c13)C2 [Example 278, 2-(2-(1-methyl-1H-imidazo[1,2-b]pyrazole-7-carbonyl)-2-azaspiro[3.3]heptan-6-yl)-N-(2-methyl-5-(trifluoro-methoxy)phenyl)acetamide] | 5 to 25 | < 5
3 | Cc1cc(C(F)(F)F)cc(NC(=O)N(C)C2CC3(C2)CN(C(=O)c2cnn4ccn(C)c24)C3)n1 [Example 300, 1-methyl-1-(2-(1-methyl-1H-imidazo[1,2-b]pyrazole-7-carbonyl)-2-azaspiro[3.3]heptan-6-yl)-3-(6-methyl-4-(trifluoromethyl)pyridin-2-yl)urea] | 5 to 25 | < 5
4 | CN1CCN(c2ccn3ncc(C(=O)N4CC5(CC(NC(=O)Nc6cc(C#N)cc(C(F)(F)F)c6)C5)C4)c3c2)CC1 [Example 87, 1-(3-cyano-5-(trifluoromethyl)phenyl)-3-(2-(5-(4-methylpiperazin-1-yl)pyrazolo[1,5-a]pyridine-3-carbonyl)-2-azaspiro[3.3]heptan-6-yl)urea] | 5 to 25 | < 5
5 | Cn1ccn2ncc(C(=O)N3CC4(CC(NC(=O)Nc5cc(C(F)(F)F)ccc5Cl)C4)C3)c12 [Example 45, 1-(2-chloro-5-(trifluoromethyl)phenyl)-3-(2-(1-methyl-1H-imidazo[1,2-b]pyrazole-7-carbonyl)-2-azaspiro[3.3]heptan-6-yl)urea] | < 5 | < 5
6 | CN(C(=O)Nc1cccc(S(F)(F)(F)(F)F)c1)C1CC2(C1)CN(C(=O)c1cnn3ccn(C)c13)C2 [Example 98, 1-methyl-1-(2-(1-methyl-1H-imidazo[1,2-b]pyrazole-7-carbonyl)-2-azaspiro[3.3]heptan-6-yl)-3-(3-(pentafluoro-16-sulfaneyl)phenyl)urea] | < 5 | < 5
7 | O=C(Nc1cc(OC(F)(F)F)ccn1)NC1CC2(C1)CN(C(=O)c1cnn3ccsc13)C2 [Example 97, 1-(2-(pyrazolo[5,1-b]thiazole-7-carbonyl)-2-azaspiro[3.3]heptan-6-yl)-3-(4-(trifluoromethoxy)pyridin-2-yl)urea] | < 5 | < 5
8 | Cc1cc2ncnc(C(=O)N3CC4(CC(NC(=O)Nc5cccc(C(F)(F)F)c5)C4)C3)c2s1 [Example 99, 1-(2-(6-methylthieno[3,2-d]pyrimidine-4-carbonyl)-2-azaspiro[3.3]heptan-6-yl)-3-(3-(trifluoromethyl)phenyl)urea] | < 5 | < 5
9 | Cc1ncc(-c2ccc3c(C(=O)N4CC5(CC(N(C)C(=O)Nc6cncc(C(F)(F)F)c6)C5)C4)cnn3c2)cn1 [Example 246, 1-methyl-1-(2-(6-(2-methylpyrimidin-5-yl)pyrazolo[1,5-a]pyridine-3-carbonyl)-2-azaspiro[3.3]heptan-6-yl)-3-(5-(trifluoromethyl)pyridin-3-yl)urea] | 25 to 100 | 5 to 25
10 | Cc1ccc(C(F)(F)F)cc1NC(=O)N(C)C1CC2(C1)CN(C(=O)c1cnn3ccn(C)c13)C2 [Example 232, 1-methyl-1-(2-(1-methyl-1H-imidazo[1,2-b]pyrazole-7-carbonyl)-2-azaspiro[3.3]heptan-6-yl)-3-(2-methyl-5-(trifluoromethyl)phenyl)urea] | 5 to 25 | < 5
11 | O=C(Nc1cccc(C(F)(F)F)c1)NC1CC2(C1)CN(C(=O)c1ncnc3sccc13)C2 [Example 88, 1-(2-(thieno[2,3-d]pyrimidine-4-carbonyl)-2-azaspiro[3.3]heptan-6-yl)-3-(3-(trifluoromethyl)phenyl)urea] | 5 to 25 | < 5
